Laboratory results from patent US20260144752A1, “Multilamellar Vesicles and Methods and Uses Thereof” (ChromoLogic LLC, priority 2022, published 2026).

How the values were obtained:
[1] = system: γ-H2AX+ intestinal crypt cells; conditions: mice, 9.25 Gy TBI; cited from earlier work
lipid peroxidation = experiment: Lipid peroxidation in cells exposed to IR; assay type: cell-based; conditions: cells exposed to 5 Gy IR, FIG. 5A
Excerpt: (§1) In various embodiments JP4-039-MLV nanoparticles protect cells from IR-induced oxidative stress. In addition to DNA damage, IR-induced oxidative stress can result in lipid peroxidation, mitochondrial membrane permeability, and an increase in ROS concentration. FIGS. 5A-5C provide exemplary data of an embodiment showing reduction of IR-induced cellular dysregulation.

ROS = ROS levels in cells exposed to IR; assay type: cell-based; conditions: cells exposed to 5 Gy IR, FIG. 5C
Excerpt: as §1

γ-H2AX = experiment: IR-induced DNA double strand breaks, γ-H2AX immunohistochemistry in irradiated cells; assay type: cell-based; conditions: cells treated prior to irradiation of 0 Gy and 5 Gy, FIGS. 4A-4B
Excerpt: In various embodiments JP4-039-MLVs have the ability to reduce IR-induced DNA double strand breaks (DSBs). IR induces DNA damage resulting in double strand breaks that can result in mitotic failure and cell death. Secondary oxidative stress induces further DNA damage. In response to double strand breaks, the histone H2AX is rapidly phosphorylated, producing γ-H2AX, a standard biomarker of DNA damage. […] FIGS. 4A-4B illustrate exemplary data from an embodiment showing the ability to reduce DNA DSBs. Specifically, FIG. 4A provides confocal images of cells treated with DMSO (control), JP4-039, and JP4-039-MLVs prior to irradiation of 0 Gy and 5 Gy. Cell nuclei are stained with DAPI (blue) and γ-H2AX is visualized by immunohistochemistry (green), while FIG. 4B illustrates relative frequency of γ-H2AX+ cells by counting blue puncta and green puncta.

[2] = cited from earlier work
[3] = stated for comparison; cited from earlier work
[4] = cited from earlier work; remark: listed apart in the source
[5] = system: mitochondrial membrane permeability; experiment: Mitochondrial membrane permeability in cells exposed to IR; assay type: cell-based; conditions: cells exposed to 10 Gy IR, FIG. 5B
Excerpt: as §1

Substance: JP4-039
- number of γ-H2AX+ intestinal crypt cells [1]: reduce the number of γ-H2AX+ intestinal crypt cells
- levels of lipid peroxidation (lipid peroxidation): reduce levels of lipid peroxidation
- ROS levels (ROS): reduced ROS levels
- protection from IR-induced DNA damage (relative frequency of γ-H2AX+ cells) (γ-H2AX): protected cells from IR-induced DNA damage
- solubility in an aqueous environment [2]: very low solubility
- in vivo half-life [3]: approximately 6 hours
- survival following TBI ([4]; hematopoietic- or gastrointestinal-ARS-inducing doses of TBI): increasing survival
- time window of effectiveness relative to irradiation ([4]; in vivo radiation survival studies): effective 24 h prior to 72 h after irradiation
- levels of mitochondrial membrane permeability [5]: reduced levels of mitochondrial membrane permeability
